# Measurements published in patent publication US9492368B2, “External preparation for skin” (HAYASHIBARA CO., LTD., priority 2011, dated 2016).
# Marks after values point to notes of the source that are not given here.
# Tested on: NHDF cells
# Experiment: Collagen production by NHDF cells (Sircol collagen assay)
# Format: cell-based, human
# Conditions: 5 μM in medium, three days
# Source text: For the anti-wrinkle action of glucosyladenosines, the effect of glucosyladenosines on the collagen production in the dermis was examined as follows using a normal human fetal fibroblast (NHDF) commonly used for evaluating agents for enhancing collagen production in the skin. […] Thereafter, the culture supernatant in each well was removed by aspiration, and the resulting cells were washed with phosphate buffered saline (PBS), and admixed with pepsin, commercialized by Sigma-Aldrich Co. LLC., Missouri, USA, which had been diluted with 1 M acetic acid to give a concentration of 1 mg/ml, in a volume of 250 μl/well. The resulting plates were shaken at ambient temperature for four hours, and the cells adhered to the wells were detached therefrom with a cell scraper and subjected to pipetting, followed by collecting the resulting cell suspension after the pepsin digestion into “EPPENDORF TUBE”, a product name of a 1.5 ml microtube, commercialized by Eppendorf AG, Hamburg, Germany. “Sicrol Collagen Assay Kit”, a product name of a developing color reagent for quantifying collagen, commercialized by Biocolor, CA, USA, was added to the tubes in a volume of 500 μl/tube, mixed with a vortex mixer, kneaded by allowing the tubes upside-down at an ambient temperature for exact 30 min using “RT-50”, a product name of a rotator commercialized by TAITEC Corporation, Saitama, Japan, and centrifuged (1,500 rpm) at 4° C. for 10 min to remove supernatants. The resulting sediments were admixed with 1 N NaOH in a volume of 100 μl/tube and dissolved by pipetting. The resulting solutions were all transferred to “FALCON MICROTEST™96”, a product name of a 96-well microplate commercialized by Becton, Dickinson and Company, NJ, USA, and measured for absorbance (A560-A650) on “Vmax Microplate Reader”, a product name of an absorption spectrometer commercialized by Molecular Devices Corporation, CA, USA. The collagen level in each well was determined based on a standard curve prepared by using type I collagen commercialized by KOKEN Co., Ltd., Tokyo, Japan, and the data are shown in Table 6 in parallel.
row,Structure (SMILES),Collagen production level
1,"Nc1ncnc2c1ncn2[C@@H]1O[C@H](CO)[C@@H](O[C@H]2O[C@H](CO)[C@@H](O)[C@H](O)[C@H]2O)[C@H]1O [3′-Glucosyladenosine, α-D-glucopyranosyl-(1→3′)-adenosine]",3.39* μg/well
2,"Nc1ncnc2c1ncn2[C@@H]1O[C@H](CO[C@H]2O[C@H](CO)[C@@H](O)[C@H](O)[C@H]2O)[C@@H](O)[C@H]1O [5′-Glucosyladenosine, α-D-glucopyranosyl-(1→5′)-adenosine]",3.53* μg/well
3,"Nc1ncnc2c1ncn2[C@@H]1O[C@H](CO)[C@@H](O)[C@H]1O [Adenosine, reference compound]",2.61 μg/well

# Same assay, conditions: 10 μM in medium, three days
row,Structure (SMILES),Collagen production level
1,"Nc1ncnc2c1ncn2[C@@H]1O[C@H](CO)[C@@H](O[C@H]2O[C@H](CO)[C@@H](O)[C@H](O)[C@H]2O)[C@H]1O [3′-Glucosyladenosine, α-D-glucopyranosyl-(1→3′)-adenosine]",4.37** μg/well
2,"Nc1ncnc2c1ncn2[C@@H]1O[C@H](CO[C@H]2O[C@H](CO)[C@@H](O)[C@H](O)[C@H]2O)[C@@H](O)[C@H]1O [5′-Glucosyladenosine, α-D-glucopyranosyl-(1→5′)-adenosine]",4.54** μg/well
3,"Nc1ncnc2c1ncn2[C@@H]1O[C@H](CO)[C@@H](O)[C@H]1O [Adenosine, reference compound]",3.02* μg/well

# Biological target: T1, adenosine deaminase (ADA) (Homo sapiens, UniProt P00813)
# T1 sequence (P00813 1-363): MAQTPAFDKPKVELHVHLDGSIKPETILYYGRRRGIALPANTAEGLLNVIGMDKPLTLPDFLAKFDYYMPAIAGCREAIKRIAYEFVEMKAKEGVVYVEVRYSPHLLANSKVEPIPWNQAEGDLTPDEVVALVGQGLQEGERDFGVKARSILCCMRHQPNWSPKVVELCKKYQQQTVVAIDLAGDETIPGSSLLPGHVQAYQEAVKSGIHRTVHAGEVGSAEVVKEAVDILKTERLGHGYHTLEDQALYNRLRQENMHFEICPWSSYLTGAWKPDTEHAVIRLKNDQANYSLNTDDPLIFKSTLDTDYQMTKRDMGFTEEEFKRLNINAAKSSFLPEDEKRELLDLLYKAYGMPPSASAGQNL
# Experiment: not given
# Conditions: 0 h, 0.5 mM, pH 7.5
# Procedure: Adenosine has been confirmed to be promptly hydrolyzed into inosine and hypoxanthine by adenosine deaminase (ADA) intrinsically present in living bodies. To examine the possibility of sustainably exerting effects by glucosyladenosines as adenosine glycosides, a test for confirming whether 5′- and 3′-glucosyladenosines are hydrolyzed in living bodies was conducted using a cell lysate of a normal human fetal fibroblast as a source for an adenosine metabolism-relatedenzyme. “NHDF cells”, a normal human fetal fibroblast, commercialized by Kurabo Industries, Osaka, Japan (called “NHDF cells”, hereinafter), which had been diluted with “Dulbecco's Modified Eagle Medium “Nissui” (abbreviated as […], hereinafter), a product name of a Dulbecco's Medium Essential Medium, commercialized by Nissui Pharmaceutical Co., Ltd., Tokyo, Japan, containing 10 v/v % fetal calf serum […] (called “FCS”, hereinafter) was inoculated to 150 cm^2 culture flasks (commercialized by Corning, N.Y., USA) in a cell amount of 1.5×10^6 cells/20 ml/flask, and cultured for four days. After removing each culture supernatant, the resulting cells were treated with “Trypsin-EDTA”, a product name of 0.05% by mass of trypsin/EDTA solution, commercialized by Gibco, NY., USA, followed by collecting the cell suspensions from each flask. […] CELL DISROPTOR 185” thrice (30 sec×twice for each) for cell disruption, centrifuged at 15,000 rpm for five minutes to collect supernatants as a cell lysate. 0.9 ml of the cell lysate and 0.1 ml of phosphate buffered saline (PBS), which had been prepared by dissolving either the 5′-glucosyladenosine that had had been prepared in Experiment 1-2 or the 3′-glucosyladenosine that had had been prepared in Experiment 2 to give a concentration of 5 mM, were mixed, stirred, and allowed to react at 37° C. Reaction solutions at reaction times 0, 1, 7 and 24 hours after initiating the reaction were collected, treated with the same method as in Experiment 3, and quantified for adenosine and glucosyladenosines by an HPLC method. Relative values for concentrations of these compounds at respective reaction times were calculated when the concentration at the reaction initiation for each compound was regarded as 100%, and they are shown in Table 3 as residual percentages of adenosine or glucosyladenosines.
row,Structure (SMILES),Remaining percentage [%]
1,"Nc1ncnc2c1ncn2[C@@H]1O[C@H](CO)[C@@H](O[C@H]2O[C@H](CO)[C@@H](O)[C@H](O)[C@H]2O)[C@H]1O [3′-Glucosyladenosine, α-D-glucopyranosyl-(1→3′)-adenosine]",100
2,"Nc1ncnc2c1ncn2[C@@H]1O[C@H](CO[C@H]2O[C@H](CO)[C@@H](O)[C@H](O)[C@H]2O)[C@@H](O)[C@H]1O [5′-Glucosyladenosine, α-D-glucopyranosyl-(1→5′)-adenosine]",100
3,"Nc1ncnc2c1ncn2[C@@H]1O[C@H](CO)[C@@H](O)[C@H]1O [Adenosine, reference compound]",100

# Same assay, conditions: 1 h, 0.5 mM, pH 7.5
row,Structure (SMILES),Remaining percentage [%]
1,"Nc1ncnc2c1ncn2[C@@H]1O[C@H](CO)[C@@H](O[C@H]2O[C@H](CO)[C@@H](O)[C@H](O)[C@H]2O)[C@H]1O [3′-Glucosyladenosine, α-D-glucopyranosyl-(1→3′)-adenosine]",95
2,"Nc1ncnc2c1ncn2[C@@H]1O[C@H](CO[C@H]2O[C@H](CO)[C@@H](O)[C@H](O)[C@H]2O)[C@@H](O)[C@H]1O [5′-Glucosyladenosine, α-D-glucopyranosyl-(1→5′)-adenosine]",101
3,"Nc1ncnc2c1ncn2[C@@H]1O[C@H](CO)[C@@H](O)[C@H]1O [Adenosine, reference compound]",53

# Same assay, conditions: 7 h, 0.5 mM, pH 7.5
row,Structure (SMILES),Remaining percentage [%]
1,"Nc1ncnc2c1ncn2[C@@H]1O[C@H](CO)[C@@H](O[C@H]2O[C@H](CO)[C@@H](O)[C@H](O)[C@H]2O)[C@H]1O [3′-Glucosyladenosine, α-D-glucopyranosyl-(1→3′)-adenosine]",86
2,"Nc1ncnc2c1ncn2[C@@H]1O[C@H](CO[C@H]2O[C@H](CO)[C@@H](O)[C@H](O)[C@H]2O)[C@@H](O)[C@H]1O [5′-Glucosyladenosine, α-D-glucopyranosyl-(1→5′)-adenosine]",100
3,"Nc1ncnc2c1ncn2[C@@H]1O[C@H](CO)[C@@H](O)[C@H]1O [Adenosine, reference compound]",0

# Same assay, conditions: 24 h, 0.5 mM, pH 7.5
row,Structure (SMILES),Remaining percentage [%]
1,"Nc1ncnc2c1ncn2[C@@H]1O[C@H](CO)[C@@H](O[C@H]2O[C@H](CO)[C@@H](O)[C@H](O)[C@H]2O)[C@H]1O [3′-Glucosyladenosine, α-D-glucopyranosyl-(1→3′)-adenosine]",17
2,"Nc1ncnc2c1ncn2[C@@H]1O[C@H](CO[C@H]2O[C@H](CO)[C@@H](O)[C@H](O)[C@H]2O)[C@@H](O)[C@H]1O [5′-Glucosyladenosine, α-D-glucopyranosyl-(1→5′)-adenosine]",96
3,"Nc1ncnc2c1ncn2[C@@H]1O[C@H](CO)[C@@H](O)[C@H]1O [Adenosine, reference compound]",0

# Tested on: not listed separately
# Experiment: Solubility of glucosyladenosines in water (maximum dissolved concentration, HPLC)
# Format: physicochemical
# Conditions: 4° C., one month
# Procedure: As a basic property, the solubilities in water of the glucosyladenosines of the present invention were compared with that of adenosine. The 5′-glucosyladenosine prepared in Experiment 1-2 and the 3′-glucosyladenosine prepared in Experiment 2 were determined for solubility in water, and they were compared with that of adenosine. One hundred milligrams of 5′-glucosyladenosine or 3′-glucosyladenosine (these compounds may be collectively called glucosyladenosines, hereinafter) was dissolved in 500 μl of pure water at an ambient temperature (25° C.). While, five milligrams of adenosine was dissolved in 500 μl of pure water at an ambient temperature (25° C.). […] The filtrate was fed to HPLC under the following conditions, followed by determining the respective contents of glucosyladenosines and adenosine based on the peak areas appeared on a chromatogram by an ultraviolet detector, and calculating their concentrations as maximum dissolved concentrations at an ambient temperature (25° C.). The same samples were allowed to stand at a 4° C. cold room for one month and centrifuged, followed by quantifying the contents of glucosyladenosines and adenosine in the resulting supernatants similarly as above to determine their maximum dissolved concentrations at 4° C.
# <Conditions for HPLC Analysis>
# Apparatus: SHIMADZU UV-VIS DETECTOR SPD-10AV (a detector), LC-10AT (a pump), C-R8A (a recorder), and SIL-20AC (an autosampler);
# Mobile phase: (0.1 v/v % aqueous acetic acid solution)/(methanol)=96/4 (v/v),
# Detection wavelength: 260 nm,
# Injection volume: 20 μl, and
# Column temperature: 40° C.
row,Structure (SMILES),Maximum dissolved concentration [w/v %]
1,"Nc1ncnc2c1ncn2[C@@H]1O[C@H](CO)[C@@H](O[C@H]2O[C@H](CO)[C@@H](O)[C@H](O)[C@H]2O)[C@H]1O [3′-Glucosyladenosine, α-D-glucopyranosyl-(1→3′)-adenosine]",2
2,"Nc1ncnc2c1ncn2[C@@H]1O[C@H](CO[C@H]2O[C@H](CO)[C@@H](O)[C@H](O)[C@H]2O)[C@@H](O)[C@H]1O [5′-Glucosyladenosine, α-D-glucopyranosyl-(1→5′)-adenosine]",> 15.7
3,"Nc1ncnc2c1ncn2[C@@H]1O[C@H](CO)[C@@H](O)[C@H]1O [Adenosine, reference compound]",0.4

# Same assay, conditions: 25° C., one day
row,Structure (SMILES),Maximum dissolved concentration [w/v %]
1,"Nc1ncnc2c1ncn2[C@@H]1O[C@H](CO)[C@@H](O[C@H]2O[C@H](CO)[C@@H](O)[C@H](O)[C@H]2O)[C@H]1O [3′-Glucosyladenosine, α-D-glucopyranosyl-(1→3′)-adenosine]",2
2,"Nc1ncnc2c1ncn2[C@@H]1O[C@H](CO[C@H]2O[C@H](CO)[C@@H](O)[C@H](O)[C@H]2O)[C@@H](O)[C@H]1O [5′-Glucosyladenosine, α-D-glucopyranosyl-(1→5′)-adenosine]",> 16.1
3,"Nc1ncnc2c1ncn2[C@@H]1O[C@H](CO)[C@@H](O)[C@H]1O [Adenosine, reference compound]",0.8
